Measured values taken from patent US20230278972A1, “SUBSTITUTED HALOALKYL SULFONANILIDE HERBICIDES” (FMC Corporation, priority 2020, published 2023).

Columns and labels:
Format in all cases: in vivo
[1] = test system: galium (catchweed bedstraw, Galium aparine); experiment: Test A postemergence, galium; conditions: Postemergence, 0 to 100 scale (0 no effect, 100 complete control)
Summary of the method: (§1)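 Greenhouse pot test in a loam–sand blend; compounds delivered in a non-phytotoxic solvent carrying a surfactant, applied either as a directed spray to soil at seeding or over seedlings 2 to 10 cm high with one to two leaves.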

[2] = test system: barnyardgrass (Echinochloa crus-galli); experiment: Test A preemergence, barnyardgrass; conditions: Preemergence; for Barnyardgrass plant response rating: visual injury on 0 to 100 scale (0 no effect, 100 complete control), approximately 10 days; for Plant response rating, Barnyardgrass: 0 to 100 scale (0 no effect, 100 complete control)
Summary of the method: (§2)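 Postemergence ratings come from foliar sprays onto one- to two-leaf plants of 2 to 10 cm grown in loam/sand; preemergence ratings come from a directed spray onto the soil of newly seeded pots. Formulation was a surfactant-containing non-phytotoxic solvent blend.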

[3] = test system: barnyardgrass (Echinochloa crus-galli); experiment: Test A postemergence, barnyardgrass; conditions: Postemergence, 0 to 100 scale (0 no effect, 100 complete control)
Summary of the method: as §1

corn (Zea mays) = experiment: Test A postemergence, corn; conditions: Postemergence, 0 to 100 scale (0 no effect, 100 complete control)
Summary of the method: as §2

[4] = test system: ragweed (common ragweed, Ambrosia artemisiifolia); experiment: Test A postemergence, ragweed; conditions: Postemergence, 0 to 100 scale (0 no effect, 100 complete control)
Summary of the method: as §2

kochia (Bassia scoparia) [5] = experiment: Test A preemergence, kochia; conditions: Preemergence; for Kochia plant response rating: visual injury on 0 to 100 scale (0 no effect, 100 complete control), approximately 10 days; for Plant response rating, Kochia: 0 to 100 scale (0 no effect, 100 complete control)
Summary of the method: as §2

[6] = test system: Foxtail, Giant (giant foxtail, Setaria faberi); experiment: Test A postemergence, Foxtail, Giant; conditions: Postemergence, 0 to 100 scale (0 no effect, 100 complete control)
Summary of the method: as §2

[7] = test system: Ryegrass, Italian (Italian ryegrass, Lolium multiflorum); experiment: Test A postemergence, Ryegrass, Italian; conditions: Postemergence, 0 to 100 scale (0 no effect, 100 complete control)
Summary of the method: as §2

[8] = test system: pigweed (Amaranthus retroflexus); experiment: Test A postemergence, pigweed; conditions: Postemergence, 0 to 100 scale (0 no effect, 100 complete control)
Summary of the method: as §2

[9] = test system: blackgrass (Alopecurus myosuroides); experiment: Test A postemergence, blackgrass; conditions: Postemergence, 0 to 100 scale (0 no effect, 100 complete control)
Summary of the method: as §2

[10] = test system: Ryegrass, Italian (Italian ryegrass, Lolium multiflorum); experiment: Test A preemergence, Ryegrass, Italian; conditions: Preemergence; for Ryegrass, Italian plant response rating: visual injury on 0 to 100 scale (0 no effect, 100 complete control), approximately 10 days; for Plant response rating, Ryegrass, Italian: 0 to 100 scale (0 no effect, 100 complete control)
Summary of the method: as §2

[11] = test system: ragweed (common ragweed, Ambrosia artemisiifolia); experiment: Test A preemergence, ragweed; conditions: Preemergence; for Ragweed plant response rating: visual injury on 0 to 100 scale (0 no effect, 100 complete control), approximately 10 days; for Plant response rating, Ragweed: 0 to 100 scale (0 no effect, 100 complete control)
Summary of the method: as §2

[12] = test system: Foxtail, Giant (giant foxtail, Setaria faberi); experiment: Test A preemergence, Foxtail, Giant; conditions: Preemergence; for Foxtail, Giant plant response rating: visual injury on 0 to 100 scale (0 no effect, 100 complete control), approximately 10 days; for Plant response rating, Foxtail, Giant: 0 to 100 scale (0 no effect, 100 complete control)
Summary of the method: as §2

kochia (Bassia scoparia) [13] = experiment: Test A postemergence, kochia; conditions: Postemergence, 0 to 100 scale (0 no effect, 100 complete control)
Summary of the method: as §2

[14] = test system: wheat (Triticum aestivum); experiment: Test A postemergence, wheat; conditions: Postemergence, 0 to 100 scale (0 no effect, 100 complete control)
Summary of the method: as §1

[15] = test system: pigweed (Amaranthus retroflexus); experiment: Test A preemergence, pigweed; conditions: for Pigweed plant response rating: visual injury on 0 to 100 scale (0 no effect, 100 complete control), approximately 10 days; for Plant response rating, Pigweed: 0 to 100 scale (0 no effect, 100 complete control)
Summary of the method: as §1

[16] = 125 g ai/ha, visual injury approx. 10 days
[17] = 500 g ai/ha, visual injury vs untreated controls after approx. 10 days
[18] = 500 g ai/ha, visual injury approx. 10 days
[19] = 125 g ai/ha, visual injury, approx. 10 days
[20] = 1000 g ai/ha, visual injury, approx. 10 days

SMILES: Cc1cc(C)c(-n2nccc(Cl)c2=O)cc1NS(=O)(=O)C(F)(F)F [Compound 82]
- Plant response rating, Galium [1, 16]: 20
- Galium plant response rating [1, 17]: 10
- Barnyardgrass plant response rating ([2]; 125 g ai/ha): 40
- Plant response rating, Barnyardgrass ([2]; 500 g ai/ha): 80
- Plant response rating, Barnyardgrass [3, 16]: 60
- Barnyardgrass plant response rating [3, 17]: 20
- Plant response rating, Corn (corn (Zea mays); [16]): 0
- Corn plant response rating (corn (Zea mays); [17]): 40
- Plant response rating, Ragweed [4, 16]: 0
- Ragweed plant response rating [4, 17]: 30
- Kochia plant response rating (kochia (Bassia scoparia) [5]; 125 g ai/ha): 70
- Plant response rating, Kochia (kochia (Bassia scoparia) [5]; 500 g ai/ha): 90
- Plant response rating, Foxtail, Giant [6, 16]: 20
- Foxtail, Giant plant response rating [6, 17]: 50
- Plant response rating, Ryegrass, Italian [7, 16]: 0
- Ryegrass, Italian plant response rating [7, 17]: 0
- Plant response rating, Pigweed [8, 16]: 0
- Pigweed plant response rating [8, 17]: 40
- Plant response rating, Blackgrass [9, 16]: 0
- Blackgrass plant response rating [9, 17]: 0
- Ryegrass, Italian plant response rating ([10]; 125 g ai/ha): 20
- Plant response rating, Ryegrass, Italian ([10]; 500 g ai/ha): 40
- Ragweed plant response rating ([11]; 125 g ai/ha): 0
- Plant response rating, Ragweed ([11]; 500 g ai/ha): 20
- Foxtail, Giant plant response rating ([12]; 125 g ai/ha): 0
- Plant response rating, Foxtail, Giant ([12]; 500 g ai/ha): 60
- Plant response rating, Kochia (kochia (Bassia scoparia) [13]; [16]): 0
- Kochia plant response rating (kochia (Bassia scoparia) [13]; [17]): 0
- Plant response rating, Wheat [14, 16]: 0
- Wheat plant response rating [14, 17]: 0
- Pigweed plant response rating ([15]; 125 g ai/ha): 90
- Plant response rating, Pigweed ([15]; 500 g ai/ha): 80

SMILES: COC1CCN(C(=O)c2cc(NS(=O)(=O)C(F)(F)F)c(Cl)cc2C)CC1 [Compound 246]
- Plant response rating, Galium ([1]; 125 g ai/ha): 90
- Plant response rating, Galium [1, 18]: 90
- Plant response rating, Barnyardgrass [2, 19]: 40
- Barnyardgrass plant response rating ([2]; 500 g ai/ha): 100
- Plant response rating, Barnyardgrass ([3]; 125 g ai/ha): 70
- Plant response rating, Barnyardgrass [3, 18]: 90
- Plant response rating, Corn (corn (Zea mays); 125 g ai/ha): 20
- Plant response rating, Corn (corn (Zea mays); [18]): 40
- Plant response rating, Ragweed ([4]; 125 g ai/ha): 90
- Plant response rating, Ragweed [4, 18]: 90
- Plant response rating, Kochia (kochia (Bassia scoparia) [5]; [19]): 40
- Kochia plant response rating (kochia (Bassia scoparia) [5]; 500 g ai/ha): 90
- Plant response rating, Foxtail, Giant ([6]; 125 g ai/ha): 60
- Plant response rating, Foxtail, Giant [6, 18]: 90
- Plant response rating, Ryegrass, Italian ([7]; 125 g ai/ha): 0
- Plant response rating, Ryegrass, Italian [7, 18]: 10
- Plant response rating, Pigweed ([8]; 125 g ai/ha): 90
- Plant response rating, Pigweed [8, 18]: 90
- Plant response rating, Blackgrass ([9]; 125 g ai/ha): 20
- Plant response rating, Blackgrass [9, 18]: 0
- Plant response rating, Ryegrass, Italian [10, 19]: 70
- Ryegrass, Italian plant response rating ([10]; 500 g ai/ha): 100
- Plant response rating, Ragweed [11, 19]: 80
- Ragweed plant response rating ([11]; 500 g ai/ha): 90
- Plant response rating, Foxtail, Giant [12, 19]: 90
- Foxtail, Giant plant response rating ([12]; 500 g ai/ha): 100
- Plant response rating, Kochia (kochia (Bassia scoparia) [13]; 125 g ai/ha): 20
- Plant response rating, Kochia (kochia (Bassia scoparia) [13]; [18]): 80
- Plant response rating, Wheat ([14]; 125 g ai/ha): 20
- Plant response rating, Wheat [14, 18]: 60
- Plant response rating, Pigweed [15, 19]: 90
- Pigweed plant response rating ([15]; 500 g ai/ha): 100

SMILES: Cc1cc(C)c(C(=O)N2CCC(Cl)CC2)cc1NS(=O)(=O)C(F)(F)F [Compound 242]
- Plant response rating, Galium [1, 20]: 90
- Plant response rating, Barnyardgrass ([2]; 1000 g ai/ha): 100
- Plant response rating, Barnyardgrass [3, 20]: 90
- Plant response rating, Corn (corn (Zea mays); [20]): 70
- Plant response rating, Ragweed [4, 20]: 90
- Plant response rating, Kochia (kochia (Bassia scoparia) [5]; 1000 g ai/ha): 90
- Plant response rating, Foxtail, Giant [6, 20]: 90
- Plant response rating, Ryegrass, Italian [7, 20]: 0
- Plant response rating, Pigweed [8, 20]: 90
- Plant response rating, Blackgrass [9, 20]: 40
- Plant response rating, Ryegrass, Italian ([10]; 1000 g ai/ha): 100
- Plant response rating, Ragweed ([11]; 1000 g ai/ha): 90
- Plant response rating, Foxtail, Giant ([12]; 1000 g ai/ha): 100
- Plant response rating, Kochia (kochia (Bassia scoparia) [13]; [20]): 80
- Plant response rating, Wheat [14, 20]: 60
- Plant response rating, Pigweed ([15]; 1000 g ai/ha): 100
